Reference: US20040152631A1, “Methods for manipulating ejaculatory reflex and sensation of ejaculation and for treating sexual dysfunction” (priority 2002, published 2004)
Where “and” joins values, the source holds several entries; their conditions need not be identical. Equal values may be shown once.

Key:
male rats = assay: Copulatory behavior after 8-OH-DPAT; format: in vivo; conditions: 0.8 mg/kg s.c. 30 minutes before test; E1-DP rats, n=3
Protocol: All male and female rats are sexually experienced. […] The female rats are bilaterally ovariectomized two weeks prior to testing. Sexual receptivity is induced using a standard regimen of exogenous estrogen and progesterone, similar to that used for the stimulus females, described above. One week before testing females receive hormone treatment and mating experience with sexually experienced male partners. All testing of experimental groups is performed four hours after onset of the dark period, in a rectangular mating arena (60-45-50 cm), under dim red illumination. After completion of the mating tests, the sexual partners are removed, and experimental animals remained in the test cage for an additional 60 minutes until sacrifice.
The number of mounts, intromissions and total duration of the tests, are recorded for analysis of copulatory behavior. Numbers of mounts and intromissions, as well as duration of test are compared using a one-way ANOVA. Post hoc comparisons are made using the Scheffe test with an alpha of 0.05 required for rejection of the null hypothesis.
The purpose of this example is to investigate neural activation of lumbar spinal cord in male rats that display minimal sexual activity prior to ejaculation. Therefore, male rats are treated with 8-hydroxy-2-(di-n-propylamino) tetralin (8-OH-DPAT), which decreases the number of mounts and intromissions prior to ejaculation. […]

LSt neurons [1] = assay: Fos-IR in galanin-IR LSt neurons after 8-OH-DPAT; format: in vivo, male rats; conditions: 0.8 mg/kg s.c.
Protocol: Activation of LSt neurons is assessed using Fos immunoreactivity (IR) as a marker for neural activation and galanin or CCK-IR to identify LSt cells.
One hour following the end of the behavioral test, animals are anesthetized using sodium pentobarbital (200 mg/kg; i.p.) and perfused transcardially with 100 ml 0.9% saline, followed by 500 ml of 4% paraformaldehyde in 0.1 M sodium phosphate buffer (PB, pH 7.3-7.4). Brain and spinal cords are removed and post fixed for 1 hr at room temperature in the fixative. Coronal sections of thoracic (T), lumbar (L) and sacral (S) spinal cord (T10-S4) are cut at 35 μm on a Microm freezing microtome (Richard Allen, Kalamazoo, Mich.) and collected in twelve parallel series in cryorotectant solution (30% sucrose, 30% ethylene glycol in 0.1 M PB; Watson et al, 1985). In addition, coronal sections ( 35 µm) through thalamus are cut and stored in four parallel series.
All incubations are performed at room temperature with gentle agitation. Series of spinal cord sections ([…]) are rinsed extensively in phosphate buffered saline (PBS) between incubations. Free-floating sections are blocked with 1% H2O2 for 10 min at room temperature and then soaked for one hour in incubation solution (PBS containing 0.1% bovine serum albumin and 0.4% triton X-100). Next, sections are incubated overnight with a primary antiserum in incubation solution to recognize Fos (polyclonal anti-Fos antiserum raised in rabbit; 1:10,000; Santa Cruz, Santa Cruz, Calif.). […]
Analysis of labeling for galanin or CCK, Fos, and dual labeling for Fos and Galanin or CCK, is performed on a Leica light microscope at 4×-40× magnification. Neurons single labeled for galanin or CCK are determined by brown staining of cytoplasm with a nucleus devoid of blue-black (Fos) reaction product. […] Dual labeling is expressed as the percentage of galanin or CCK cells that expressed Fos. […]

LSt neurons [2] = assay: Cell counts (galanin-IR, SPR-IR, NeuN-IR) in L3-L4 spinal cord after intraspinal SSP-SAP or SAP; format: in vivo; conditions: complete = galanin-IR LSt neurons less than 1/3 of untreated rats
Description: First a membrane target located on the LSt neurons is identified. […] Identification of the SPR receptor on LSt cells enable the use of the targeted toxin SSP-SAP, which consists of the ribosome inhibitor protein toxin saporin (SAP) conjugated to a substance P analogue (SSP) with high affinity for SPR. SSP-SAP is infused into the L3-4 spinal cord at the location of the LSt cells in sexually experienced or sexually naive male rats. Male rats are allowed to mate with a receptive female during 6 pre-operative sessions (3 ejaculations or 100 minutes each).
All procedures are approved by the Animal Care and use Committee of the University of Cincinnati, Ohio and conformed to NIH guidelines involving vertebrate animals in research. Male rats are deeply anesthetized using ketamine/xylazine and laminectomy of L3 and L4 is performed. […]
Control animals are injected with non-conjugated equimolar concentrations of SAP. […] Latencies and numbers of mounts, intromissions, and ejaculations are recorded, and vaginas of females are checked for seminal plugs multiple times during mating tests. […]
Non-specific lesioning is determined by counting neurons visualized by neuronal marker N-IR. SPR containing cells are also counted in a standard area in the dorsal horn, as illustrated in FIG. 2A (area 2), to determine if lesioning is restricted to the area surrounding the central canal. […]

LSt neurons [3] = assay: Sexual behavior tests after lesion surgery; format: in vivo, male rats; conditions: 6 post-surgery tests, 100 minutes with receptive female
Protocol: (§1) Control animals are injected with non-conjugated equimolar concentrations of SAP. […] Rats with obvious motor impairment after surgery (n=10; 7 injected with SAP; 3 injected with SSP-SAP) are excluded from the study. Sexual behavior is first tested 10 days after lesion surgery, and during 5 subsequent twice-weekly tests. The trials are performed during the dark phase of the light cycle and consisted of the male rat being placed into the testing cage for 100 minutes with a receptive female. Stimulus females were ovariectomized and implanted subcutaneously (s.c.) with 5% 17-beta-estradiol benzoate silastic capsules. Progesterone (500 μg in 0.1 ml of sesame oil) was injected (s.c.) 4-6 hours prior to testing to induce sexual receptivity. Latencies and numbers of mounts, intromissions, and ejaculations are recorded, and vaginas of females are checked for seminal plugs multiple times during mating tests.
The effects of LSt lesions on display of sexual behavior are assessed in the three groups described above. LSt lesions have a dramatic effect on sexual behavior. […] Furthermore, ablation of LSt neurons appears to selectively block ejaculatory behavior while not affecting other components of sexual behavior.

[4] = Motor impairment after surgery; format: in vivo; conditions: number of SAP-injected control rats excluded; 10 excluded in total (3 SSP-SAP)
Protocol: as §1

LSt neurons [5] = assay: Optical density of galanin-IR and SPR-IR around IML, CAN and SPN after LSt lesion; format: in vivo, rats
Description: In these areas galanin-IR is present in fibers, while SPR-IR is located in neurons and fibers. […] In contrast, SPR-IR is not reduced following LSt lesions.
Following the final behavior test, animals are perfused intracardially with 4% paraformaldehyde and spinal cord tissue is collected for further processing. Spinal cords are cut into 35μm coronal sections and collected in 12 parallel series. Adjacent sections are stained for galanin, SPR or neuronal marker N using the general procedures as described in W. Truitt, M. Shipley, J. Veening, L. Coolen, J. Neurosci (2002). The primary antibodies and concentrations that are used include: Galanin—rabbit anti-galanin at 1:80,000 (PenLabs), Substance P receptor—rabbit anti-NK1 at 1:1,000 (Advanced Targeting Systems), and Neuronal marker N—mouse anti-NeuN at 1:10,000 (Chemicon).

Molecule	average number of intromissions prior to ejaculation (male rats)	average number of mounts prior to ejaculation (male rats)	activation of Galanin neurons (Fos) (LSt neurons [1]; 8-OH-DPAT alone, no exposure to female (DPc group))	Galanin-IR neurons containing Fos-IR (LSt neurons [1]; E1-DP males, after one ejaculation)	mean number of galanin-IR neurons (LSt neurons [1]; two groups (one ejaculation / no female), order of values not stated)	lesions of LSt neurons (LSt neurons [2])	display of ejaculatory behavior (LSt neurons [3])	rats with obvious motor impairment after surgery (excluded) [4]	CAN-SPR optical density (LSt neurons [5]; Substance P receptor-IR around central autonomic nucleus, group in label)	IML-SPR optical density (LSt neurons [5]; Substance P receptor-IR around intermediolateral column, group in label)	SPN-SPR optical density (LSt neurons [5]; Substance P receptor-IR around sacral parasympathetic nucleus, group in label)	CAN-galanin optical density (LSt neurons [5]; galanin-IR around central autonomic nucleus, group in label)	IML-galanin optical density (LSt neurons [5]; galanin-IR around intermediolateral column, group (SAP, SSP-il, SSP-les) in label)	SPN-galanin optical density (LSt neurons [5]; galanin-IR around sacral parasympathetic nucleus, group in label)
CCCN(CCC)C1CCc2cccc(O)c2C1 (centres unmarked) [8-OH-DPAT, 8-hydroxy-2-(di-n-propylamino) tetralin]	1.33±0.67	2.33±1.20	do not result in activation	85.55%±1.76	33.67±4.06 and 33.33±5.53									
saporin						no lesions	continue to ejaculate regularly	7	380.26 ± 39.06 pixels (×1,000)	209.91 ± 30.92 pixels (×1,000)	392.68 ± 50.65 pixels (×1,000)	128.84 ± 25.81 pixels (×1,000)	58.82 ± 12.85 pixels (×1,000)	137.75 ± 14.99 pixels (×1,000)
